Assay results: ChEMBL document CHEMBL3621097, “A step forward in the sigma enigma: a role for chirality in the sigma1 receptorligand interaction?” (Medchemcomm, 2015)
Activity calls are given as the source filed them. The rule behind the calls is not given here.

Legend:
[1] = target: Sigma non-opioid intracellular receptor 1 (Cavia porcellus, UniProt Q60492); test: Displacement of [3H](+)-pentazocine from sigma-1 receptor in guinea pig brain cortex after 120 mins by scintillation counting analysis
[2] = Displacement of [3H]-DTG from sigma-2 receptor in Sprague-Dawley rat liver membranes after 120 mins by scintillation counting analysis; format: cell membranes, Membrane
[3] = target: Sigma non-opioid intracellular receptor 1 (Rattus norvegicus) (UniProt Q9R0C9); test: Agonist activity at sigma 1 receptor in rat PC12 cells assessed as potentiation of NGF-induced neurite outgrowth at 2.5 to 5 uM after 5 days by phase contrast microscopic analysis relative to NGF-treated control; format: cell-based; conditions: PC-12
[4] = Selectivity ratio of Ki for sigma-2 receptor in Sprague-Dawley rat liver membrane to Ki for sigma-1 receptor in guinea pig brain cortex; format: cell membranes
[5] = target: Sigma non-opioid intracellular receptor 1 (Rattus norvegicus) (UniProt Q9R0C9); test: Agonist activity at sigma 1 receptor in rat PC12 cells assessed as potentiation of NGF-induced neurite outgrowth at 2.5 to 5 uM after 5 days by phase contrast microscopic analysis; format: cell-based; conditions: PC-12
[6] = target: Sigma non-opioid intracellular receptor 1 (Rattus norvegicus) (UniProt Q9R0C9); test: Agonist activity at sigma 1 receptor in rat PC12 cells assessed as potentiation of NGF-induced neurite outgrowth at 2.5 to 5 uM after 5 days by phase contrast microscopic analysis in presence of sigma 1 antagonist NE-100; format: cell-based; conditions: PC-12

Sigma non-opioid intracellular receptor 1 (Rattus norvegicus), sequence (Q9R0C9 whole entry): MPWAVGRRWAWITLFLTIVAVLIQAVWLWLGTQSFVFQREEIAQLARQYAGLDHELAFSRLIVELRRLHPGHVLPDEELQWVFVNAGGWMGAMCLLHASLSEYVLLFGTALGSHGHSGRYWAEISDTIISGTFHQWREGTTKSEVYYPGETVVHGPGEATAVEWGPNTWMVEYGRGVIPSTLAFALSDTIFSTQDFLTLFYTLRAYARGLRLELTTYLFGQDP
Sigma non-opioid intracellular receptor 1, sequence (Q60492 whole entry): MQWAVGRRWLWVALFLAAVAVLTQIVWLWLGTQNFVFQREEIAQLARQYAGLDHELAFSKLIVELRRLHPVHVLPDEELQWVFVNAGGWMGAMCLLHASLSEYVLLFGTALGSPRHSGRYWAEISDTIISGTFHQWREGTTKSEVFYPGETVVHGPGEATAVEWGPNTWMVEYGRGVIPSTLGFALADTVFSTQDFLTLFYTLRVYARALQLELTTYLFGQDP

Row | SMILES | Ki [1] [µM] | Ki [2] [µM] | Activity [3] | Ratio Ki [4] | Activity [5] | Activity [6]
1 | COc1ccc2cc([C@](C)(O)CCN(C)C)ccc2c1 | 0.051 | 0.133 | – | – | – | –
2 | C[C@@H]1N(C)CC[C@@]1(O)c1ccc2ccccc2c1 | 0.026 | 0.432 | – | – | – | –
3 | COc1ccc2cc([C@]3(O)CCN(C)[C@H]3C)ccc2c1 | 1.2 | 1.9 | – | – | – | –
4 | CC(CCN1CCCCC1)c1ccc(-c2ccccc2)cc1 (racemic) | 0.0009 | 0.103 | – | – | – | –
5 | CN(C)CC[C@@](C)(O)c1ccc2ccccc2c1 | 0.205 | 0.651 | – | – | – | –
6 | CN(C)CCC(C)(O)c1ccc2ccccc2c1 (racemic) | 0.077 | 0.066 | – | – | – | –
7 | C[C@@](O)(CCN1CCCCC1)c1ccc(-c2ccccc2)cc1 | 0.039 | 4.3 | inactive | – | – | –
8 | COc1ccc2cc(C(C)(O)CCN(C)C)ccc2c1 (racemic) | 0.041 | 0.097 | – | – | – | –
9 | COc1ccc2cc([C@@](C)(O)CCN(C)C)ccc2c1 | 0.025 | 1.1 | – | – | – | –
10 | COc1ccc2cc([C@@]3(O)CCN(C)[C@@H]3C)ccc2c1 | 1.5 | 1.2 | – | – | – | –
11 | CC1N(C)CCC1(O)c1ccc2ccccc2c1 (racemic) | 0.065 | 0.366 | – | – | – | –
12 | C[C@](O)(CCN1CCCCC1)c1ccc(-c2ccccc2)cc1 | 0.0047 | 1.8 | – | 382 | Active | inactive
13 | CN(C)CC[C@](C)(O)c1ccc2ccccc2c1 | 0.063 | 0.075 | – | – | – | –
14 | C[C@H](CCN1CCCCC1)c1ccc(-c2ccccc2)cc1 | 0.0018 | 0.045 | – | – | – | –
15 | COc1ccc2cc(C3(O)CCN(C)C3C)ccc2c1 (configuration not stated) | 1.9 | 1.5 | – | – | – | –
16 | C[C@H]1N(C)CC[C@]1(O)c1ccc2ccccc2c1 | 0.086 | 0.094 | – | – | – | –
17 | C[C@@H](CCN1CCCCC1)c1ccc(-c2ccccc2)cc1 | 0.0019 | 0.098 | – | – | – | –
18 | CC(O)(CCN1CCCCC1)c1ccc(-c2ccccc2)cc1 (racemic) | 0.00657 | 0.0346 | – | – | Active | inactive
